Test results as given in patent US20260152503A1, “SPIROBICYCLIC COMPOUNDS” (ACERAND THERAPEUTICS (HONG KONG) LIMITED, priority 2022, published 2026).

Assays:
FGFR2 = target: T1, FGFR2 (Homo sapiens, UniProt P21802, K310R/N549K); experiment: pERK potency assay (In Cell ELISA), AN3CA cells; assay type: cell-based; conditions: for IC50: pERK, AN3CA (FGFR2/k310R, N549K) cells, 3 hours; for FGFR1 IC50/FGFR2 IC50 / FGFR3 IC50/FGFR2 IC50: selectivity ratio, pERK potency; for FGFR1 IC50/FGFR2 IC50: FGFR2 relative to FGFR1; for FGFR3 IC50/FGFR2 IC50: FGFR2 relative to FGFR3
T1 construct: in FGFR aberrations of AN3CA (FGFR2/k310R, N549K); host or cells: AN3CA
T1 sequence (P21802 22-821 K310R/N549K): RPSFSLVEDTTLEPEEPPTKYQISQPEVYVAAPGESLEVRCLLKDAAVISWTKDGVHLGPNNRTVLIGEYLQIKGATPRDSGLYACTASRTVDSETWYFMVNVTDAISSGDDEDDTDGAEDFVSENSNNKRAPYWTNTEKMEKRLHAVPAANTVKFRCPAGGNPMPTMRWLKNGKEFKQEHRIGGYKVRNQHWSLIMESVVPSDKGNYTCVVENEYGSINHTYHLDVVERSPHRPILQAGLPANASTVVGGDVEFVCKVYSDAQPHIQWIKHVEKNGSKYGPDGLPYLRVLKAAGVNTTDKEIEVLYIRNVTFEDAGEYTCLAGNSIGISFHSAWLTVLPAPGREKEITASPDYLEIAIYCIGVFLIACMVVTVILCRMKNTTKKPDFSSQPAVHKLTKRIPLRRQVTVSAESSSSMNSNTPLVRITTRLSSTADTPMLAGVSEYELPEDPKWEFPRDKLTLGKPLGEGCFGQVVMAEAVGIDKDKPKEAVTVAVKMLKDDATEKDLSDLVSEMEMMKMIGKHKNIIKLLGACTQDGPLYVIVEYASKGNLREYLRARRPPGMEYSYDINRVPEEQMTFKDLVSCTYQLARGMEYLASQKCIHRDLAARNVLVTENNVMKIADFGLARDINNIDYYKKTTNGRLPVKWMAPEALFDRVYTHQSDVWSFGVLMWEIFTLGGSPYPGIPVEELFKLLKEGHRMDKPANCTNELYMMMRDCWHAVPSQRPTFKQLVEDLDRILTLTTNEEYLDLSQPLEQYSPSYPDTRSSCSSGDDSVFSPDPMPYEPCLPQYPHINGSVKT
Method in brief: (§1)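 IC50 values come from a 4-parameter sigmoidal fit of in-cell ELISA chemiluminescent pERK (Thr202/Tyr204) signal. Treatment lasted 3 h at 37 °C, final 0.000038 to 10 μM in 4-fold steps, using AN3CA (mutant FGFR2), DMS114 (amplified FGFR1) and RT112 (FGFR3 overexpression/fusion) cells.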

FGFR1 = target: T2, FGFR1 (Homo sapiens, UniProt P11362); experiment: pERK potency assay (In Cell ELISA), DMS114 cells; assay type: cell-based; conditions: DMS114 (FGFR1 amplification) cells, 3 hours
T2 construct: DMS114 (FGFR1 amplification); host or cells: DMS114
T2 sequence (P11362 22-822): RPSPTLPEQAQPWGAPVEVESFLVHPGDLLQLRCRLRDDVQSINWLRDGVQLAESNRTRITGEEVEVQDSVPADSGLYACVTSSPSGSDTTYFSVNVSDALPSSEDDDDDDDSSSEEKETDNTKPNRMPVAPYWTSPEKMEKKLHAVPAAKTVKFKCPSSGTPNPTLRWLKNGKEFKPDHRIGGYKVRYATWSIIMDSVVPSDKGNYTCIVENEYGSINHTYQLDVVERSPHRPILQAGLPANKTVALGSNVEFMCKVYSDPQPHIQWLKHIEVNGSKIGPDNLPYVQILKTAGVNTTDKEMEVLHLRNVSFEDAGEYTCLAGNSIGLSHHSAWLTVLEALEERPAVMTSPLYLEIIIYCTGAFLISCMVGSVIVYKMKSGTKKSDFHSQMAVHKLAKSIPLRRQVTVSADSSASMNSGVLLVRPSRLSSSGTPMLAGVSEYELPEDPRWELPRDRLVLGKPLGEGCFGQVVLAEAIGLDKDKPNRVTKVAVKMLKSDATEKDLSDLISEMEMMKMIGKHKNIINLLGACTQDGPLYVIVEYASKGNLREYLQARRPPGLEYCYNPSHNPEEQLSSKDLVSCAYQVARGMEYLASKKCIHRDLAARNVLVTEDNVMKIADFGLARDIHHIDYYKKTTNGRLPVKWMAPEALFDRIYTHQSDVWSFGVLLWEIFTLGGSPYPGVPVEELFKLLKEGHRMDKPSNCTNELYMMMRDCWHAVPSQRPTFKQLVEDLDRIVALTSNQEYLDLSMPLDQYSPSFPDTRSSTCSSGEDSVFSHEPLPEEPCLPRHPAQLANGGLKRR
Method in brief: as §1

FGFR3 = target: T3, FGFR3 (Homo sapiens, UniProt P22607); experiment: pERK potency assay (In Cell ELISA), RT112 cells; assay type: cell-based; conditions: RT112 (FGFR3 overexpression/FGFR3-TACC3 fusion) cells, 3 hours
T3 construct: RT112 (FGFR3 overexpression/FGFR3-TACC3 fusion); host or cells: RT112; the other entry of the earlier key: TACC3 (Q9Y6A5, Transforming acidic coiled-coil-containing protein 3)
Method in brief: as §1

AN3CA = experiment: 2D cell proliferation assay, AN3CA; assay type: cell-based; conditions: Homo sapiens, AN3-CA, 96 hours, CTG, read-out: Cell Line, IC50 AN3CA
Protocol: (§2) Low IC50 values are indicative of the high potency of the FGFR inhibitor compounds in this assay selling. […] Cell proliferation assays are performed in two-dimensional (2D)) anchorage-dependent conditions in 96 well plates (Corning® Black/Clear flat Bottom, Cat #3603) with the following cell lines: • Ba/F3 FGFR2-BICC1 (human […]): Mouse Ba/F3 cell line stably expressed exogenous human FGFR2-BICC1 fusion gene bearing V546F mutation in FGFR2 Ba/F3; • FGFR2-BICC1 (human FGFR2/[…]): Mouse Ba/F3 cell line stably expressed exogenous human FGFR2-BICC1 fusion gene bearing N549K mutation in FGFR2; • Snu-16: human gastric cancer cell with FGFR2 amplification; • KATO III: human gastric cancer cell with FGFR2 amplification; • AN3CA: Human endometrial cancer with FGFR2 mutation (k310R, N549K); • MFM-223: Human breast cancer with FGFR1/2 amplification; • MFE-296: Human endometrial cancer with FGFR2 mutation (N549K); • MFE-280: Human endometrial cancer with FGFR2 mutation ([…]); • NCI-H1581: human non-small cell lung cancer with FGFR1 amplification; • KG-1a: Acute myelogenous leukemia with FGFR1OP2-FGFR1 translocation; • DMS114: human small cell carcinoma of the lung with FGFR1 amplification; • RT112: human bladder cancer with FGFR3 overexpression/FGFR3-TACC3 fusion; • SW780: human bladder cancer with FGFR3 overexpression/FGFR3-BALAP2L1 fusion; • Hep3B: Liver cancer with FGF19 amplification (FGFR4 ligand); • AGS: Human gastric adenocarcinoma with Kras G12D mutation and FGFR wild type; • PC-9: human non-small cell lung cancer (NSCLC) with wild-type FGFR and an EGFR del19 mutation; or • H1975: human non-small cell lung cancer (NSCLC) with wild-type FGFR and EGFR L858R/T790M mutation.
(§3) Cell lines are purchased from the American Type Culture Collection (ATCC) or Sigma. All cell lines are maintained in RPMI-1640 or DMEM supplemented with 10% heat-inactivated fetal bovine serum.
(§4) Cells growing in the log phase are detached with Gibco™ TrypLE™ Express Enzyme and plated in 96 well plate at 3000 to 5000 cells/well in 100 μl of media. After overnight incubation at 37° C., 5% CO2 incubator, cells are treated with compounds (50 uL/well) at the final concentrations spanning from 0.000038 uM to 10 μM (4-fold serial dilution for total of 10 points). Cells are incubated at 37° C., 5% CO2, and 95% humidity incubator for 96 hours. At the end of incubation 2D CTG reagent from Promega was added to each well according to vendors recommendation and mixed for 10 min in dark. The luminescence signals are determined with a Biotek™ plate reader. Data is fitted using a sigmoidal curve analysis program (GraphPad Prism®) with variable hill slope and IC50 is determined.

Ba/F3 FGFR2-N549K = target: T4, Ba/F3 FGFR2-N549K (Homo sapiens, UniProt P21802, N549K, cells depend on it); experiment: 2D cell proliferation assay, Ba/F3 FGFR2-N549K; assay type: cell-based, mouse; conditions: 96 hours, CTG, read-out: Cell Line, IC50 Ba/F3 FGFR2-N549K
T4 construct: fused on or other part: Q9H694 (Protein bicaudal C homolog 1)
T4 sequence (P21802 whole entry N549K, the tested form may be a part): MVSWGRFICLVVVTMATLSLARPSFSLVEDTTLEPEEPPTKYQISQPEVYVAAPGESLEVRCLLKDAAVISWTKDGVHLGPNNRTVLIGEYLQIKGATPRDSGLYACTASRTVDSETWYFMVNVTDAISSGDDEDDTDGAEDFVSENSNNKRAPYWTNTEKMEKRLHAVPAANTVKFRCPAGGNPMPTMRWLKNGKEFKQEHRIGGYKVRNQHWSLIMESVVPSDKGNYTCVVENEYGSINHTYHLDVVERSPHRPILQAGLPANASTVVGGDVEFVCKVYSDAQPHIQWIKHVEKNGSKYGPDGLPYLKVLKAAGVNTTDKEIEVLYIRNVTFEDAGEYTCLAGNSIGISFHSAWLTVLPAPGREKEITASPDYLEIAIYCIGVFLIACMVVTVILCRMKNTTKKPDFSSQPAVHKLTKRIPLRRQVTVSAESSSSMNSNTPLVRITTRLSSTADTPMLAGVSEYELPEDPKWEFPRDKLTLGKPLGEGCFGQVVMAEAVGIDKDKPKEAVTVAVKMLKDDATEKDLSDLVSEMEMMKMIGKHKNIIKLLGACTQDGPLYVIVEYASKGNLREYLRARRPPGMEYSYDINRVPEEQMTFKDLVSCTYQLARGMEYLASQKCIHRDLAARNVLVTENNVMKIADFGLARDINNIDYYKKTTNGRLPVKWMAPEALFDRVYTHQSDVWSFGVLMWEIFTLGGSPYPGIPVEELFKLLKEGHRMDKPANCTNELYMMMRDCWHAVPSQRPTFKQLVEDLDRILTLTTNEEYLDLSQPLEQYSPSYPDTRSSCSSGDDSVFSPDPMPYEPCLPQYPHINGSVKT
Protocol: as §2, §3, §4

Ba/F3 FGFR2-V564F = target: T5, Ba/F3 FGFR2-V564F (Homo sapiens, UniProt P21802, V564F, cells depend on it); experiment: 2D cell proliferation assay, Ba/F3 FGFR2-V564F; assay type: cell-based, mouse; conditions: 96 hours, CTG, read-out: Cell Line, IC50 Ba/F3 FGFR2-V564F
T5 construct: fused on or other part: Q9H694 (Protein bicaudal C homolog 1)
T5 sequence (P21802 whole entry V564F, the tested form may be a part): as the sequence (P21802 whole entry N549K, the tested form may be a part) above, with K549N, V564F counted along it
Protocol: as §2, §3, §4

KATO III = experiment: 2D cell proliferation assay, KATO III; assay type: cell-based; conditions: Homo sapiens, 96 hours, CTG, read-out: Cell Line, IC50 KATO III
Protocol: as §2, §3, §4

SNU-16 = experiment: 2D cell proliferation assay, SNU-16; assay type: cell-based; conditions: Homo sapiens, 96 hours, CTG, read-out: Cell Line, IC50 SNU-16
Protocol: as §2, §3, §4

SMILES | IC50 (FGFR2) [nM] | IC50 (FGFR1) [nM] | IC50 (FGFR3) [nM] | GI50 (Ba/F3 FGFR2-N549K) [nM] | GI50 (Ba/F3 FGFR2-V564F) [nM] | IC50 (SNU-16) [nM] | FGFR1 IC50/FGFR2 IC50 (FGFR2) | FGFR3 IC50/FGFR2 IC50 (FGFR2) | IC50 (AN3CA) [nM] | IC50 (KATO III) [nM]
C=CC(=O)N1CCC2(CC=C(c3c(-c4ccc(OC5CCC5)nc4)c4c(N)ncnc4n3C)CC2)CC1 [Example 26, 1-(9-(4-amino-5-(6-cyclobutoxypyridin-3-yl)-7-methyl-7H-pyrrolo[2,3-d]pyrimidin-6-yl)-3-azaspiro[5.5]undec-8-en-3-yl)prop-2-en-1-one] | 1 to 10 | > 100 | > 100 | 1 to 10 | 1 to 10 | 1 to 10 | F (a selectivity ratio greater than 50 but less than or equal to 150) | G (a selectivity ratio greater than 150 but less than or equal to 500) | 10 to 30 | 1 to 10
C=CC(=O)N1CCC2(CC=C(c3c(-c4cnc(OC)c(F)c4)c4c(N)ncnc4n3C)CC2)CC1 [Example 28, 1-(9-(4-amino-5-(5-fluoro-6-methoxypyridin-3-yl)-7-methyl-7H-pyrrolo[2,3-d]pyrimidin-6-yl)-3-azaspiro[5.5]undec-8-en-3-yl)prop-2-en-1-one] | 1 to 10 | > 100 | > 100 | 1 to 10 | 10 to 30 | 1 to 10 | F (a selectivity ratio greater than 50 but less than or equal to 150) | G (a selectivity ratio greater than 150 but less than or equal to 500) | 10 to 30 | 1 to 10
C=CC(=O)N1CCC2(CC=C(c3c(-c4ncccn4)c4c(N)ncnc4n3C)CC2)CC1 [Example 33, 1-(9-(4-amino-7-methyl-5-(pyrimidin-2-yl)-7H-pyrrolo[2,3-d]pyrimidin-6-yl)-3-azaspiro[5.5]undec-8-en-3-yl)prop-2-en-1-one] | 1 to 10 | > 100 | > 100 | 1 to 10 | ≤ 1 | 1 to 10 | G (a selectivity ratio greater than 150 but less than or equal to 500) | I (a selectivity ratio greater than 1000 but less than or equal to 2000) | 10 to 30 | 1 to 10
C=CC(=O)N1CCC2(CC=C(c3c(-c4ccc(OC)nc4)c4c(N)ncnc4n3C)CC2)CC1C (stereo not drawn) [Example 39, 1-(9-(4-amino-5-(6-methoxypyridin-3-yl)-7-methyl-7H-pyrrolo[2,3-d]pyrimidin-6-yl)-2-methyl-3-azaspiro[5.5]undec-8-en-3-yl)prop-2-en-1-one] | 1 to 10 | > 100 | > 100 | 1 to 10 | 10 to 30 | 10 to 30 | G (a selectivity ratio greater than 150 but less than or equal to 500) | I (a selectivity ratio greater than 1000 but less than or equal to 2000) | 10 to 30 | 10 to 30

Now from value to compound, other results behind:

IC50 (FGFR2) [nM] | IC50 (FGFR1) [nM] | IC50 (FGFR3) [nM] | GI50 (Ba/F3 FGFR2-N549K) [nM] | GI50 (Ba/F3 FGFR2-V564F) [nM] | IC50 (SNU-16) [nM] | SMILES | FGFR1 IC50/FGFR2 IC50 (FGFR2) | FGFR3 IC50/FGFR2 IC50 (FGFR2) | IC50 (AN3CA) [nM] | IC50 (KATO III) [nM]
1 to 10 | > 100 | > 100 | 1 to 10 | 30 to 100 | 10 to 30 | C=CC(=O)N1CCC2(CC=C(c3c(-c4ccc(F)cc4)c4c(N)ncnc4n3C)CC2)CC1 [Example 11, 1-(9-(4-amino-5-(4-fluorophenyl)-7-methyl-7H-pyrrolo[2,3-d]pyrimidin-6-yl)-3-azaspiro[5.5]undec-8-en-3-yl)prop-2-en-1-one] | I (a selectivity ratio greater than 1000 but less than or equal to 2000) | J (a selectivity ratio greater than 2000) | 30 to 100 | 30 to 100
≤ 1 | > 100 | > 100 | 1 to 10 | 1 to 10 | 1 to 10 | C=CC(=O)N1CCC2(CC=C(c3c(-c4ccc(OC5CC5)cc4)c4c(N)ncnc4n3C)CC2)CC1 [Example 18, 1-(9-(4-amino-5-(4-cyclopropoxyphenyl)-7-methyl-7H-pyrrolo[2,3-d]pyrimidin-6-yl)-3-azaspiro[5.5]undec-8-en-3-yl)prop-2-en-1-one] | G (a selectivity ratio greater than 150 but less than or equal to 500) | G (a selectivity ratio greater than 150 but less than or equal to 500) | 10 to 30 | 1 to 10
1 to 10 | > 100 | > 100 | 1 to 10 | 1 to 10 | 1 to 10 | C=CC(=O)N1CCC2(CC=C(c3c(-c4ccc(OC5CC5)nc4)c4c(N)ncnc4n3C)CC2)CC1 [Example 22, 1-(9-(4-amino-5-(6-cyclopropoxypyridin-3-yl)-7-methyl-7H-pyrrolo[2,3-d]pyrimidin-6-yl)-3-azaspiro[5.5]undec-8-en-3-yl)prop-2-en-1-one] | G (a selectivity ratio greater than 150 but less than or equal to 500) | G (a selectivity ratio greater than 150 but less than or equal to 500) | 10 to 30 | 1 to 10
1 to 10 | > 100 | > 100 | 1 to 10 | 10 to 30 | 1 to 10 | C=CC(=O)N1CCC2(CC=C(c3c(-c4cnc(OC5CC5)c(F)c4)c4c(N)ncnc4n3C)CC2)CC1 [Example 23, 1-(9-(4-amino-5-(6-cyclopropoxy-5-fluoropyridin-3-yl)-7-methyl-7H-pyrrolo[2,3-d]pyrimidin-6-yl)-3-azaspiro[5.5]undec-8-en-3-yl)prop-2-en-1-one] | G (a selectivity ratio greater than 150 but less than or equal to 500) | H (a selectivity ratio greater than 500 but less than or equal to 1000) | 10 to 30 | 1 to 10
1 to 10 | > 100 | > 100 | 1 to 10 | 30 to 100 | 10 to 30 | C=CC(=O)N1CCC2(CC=C(c3c(-c4ccc(OC5CCCC5)nc4)c4c(N)ncnc4n3C)CC2)CC1 [Example 24, 1-(9-(4-amino-5-(6-(cyclopentyloxy)pyridin-3-yl)-7-methyl-7H-pyrrolo[2,3-d]pyrimidin-6-yl)-3-azaspiro[5.5]undec-8-en-3-yl)prop-2-en-1-one] | F (a selectivity ratio greater than 50 but less than or equal to 150) | F (a selectivity ratio greater than 50 but less than or equal to 150) | 10 to 30 | 10 to 30
